# According to publication PMC12261321, “Inhibitors of the Bacterioferritin Ferredoxin Complex Dysregulate Iron Homeostasis and Kill and Biofilm-Embedded Cells” (ACS Infectious Diseases, 2025):
# System: A. baumannii 5075
# Experiment: Siderophores secreted by A. baumannii (CAS assay)
# Type: cell-based
# Conditions: 5075, 20 h, M63 without citrate; compounds 40 μM, SB-17–140 80 μM
# Experimental: Unlike pyoverdine, the siderophores secreted by are not fluorescent. Consequently, to measure siderophore secretion from planktonic cultures of , we decided to utilize the Chrome azurol S (CAS) assay, a well-known universal colorimetric method used to detect siderophores. , To this end, planktonic cells of 5075 were cultured for 20 h in the presence of sub-MICs of a representative number of inhibitors in M63 media not containing citrate, followed by analysis of the cell-free spent media by the CAS assay. […] These observations support the hypothesis that active compounds engage their target (Ab Bfr) and block the Ab Bfr–Bfd complex in , trapping iron in Ab Bfr and causing intracellular iron limitation, which in turn elicits a siderophore overproduction phenotype. […]
# reported13 with some modifications. Cells were cultured in modified M63 media (2 g / L ( N H 4)2SO4, 13.6 g/L KH2PO4 (Sigma Aldrich), 2 g/L glucose, 4 g/L cit ric acid, 5 g/ L technical grade casamino acids (B D scientific), 0.24 g/L MgSO4 (Alfa A esar), and 0.025% (w/v) HPMC, pH 7.0 adjusted with KOH) . […]
# Determination of Siderophores Secreted by A. baumannii . The chromo azurol S (CAS) solution was prepared as previously reported18 with some modifications. The blue dye solution (0.6 g/L CAS ( ACROS Organics), 100 μM FeCl3·6H2O, and 0.73 g/L hexadecyltrimethylammonium bromide (HDTMA, ACROS Organics) was autoclaved and stored in the dark. The MM9-PIPES buffer solution (3 g/L KH2PO4, 5 g/L NaCl, 10 g/L NH4C l, 32.24 g/L piperazine -1,4-bis-2- ethanesulfonic acid (PIPES , Sigma Aldrich), pH 6.75) was sterilized using a 0.22 µm syringe filter (VWR). Prior to every experimen t, blue dye solution (0.5 mL) was mixed with 4.5 mL of MM9-PIPES solution. An overnight culture of A. baumannii 5075 was diluted to OD600 = 0.0001 with modified M63 media (no citric acid) supplemented with 4 μ M Fe and transferred to a 96-well plate, wh ere it was cul tured for 20 […]
# h at 35 °C and 205 cpm i n a plate reader (Synergy H1, BioTek). The treated cell cultures contained compound at the concentrations indicat ed in the caption of Figure 8B and […], whereas the untreated control contained 0.1% DMSO. 700 μ L was centrifuged at 16,200 x g for 10 min. 200 μ L of the clarified supern atant was mixed with the 200 μL of CAS solution and allowed to incubate at room temperatu re in the dark for 2 h prior to recording a UV-Vis spectrum (200 nm to 800 nm) in a 1.0 cm quartz cuvette with the aid of a Cary 60 UV-Vi s spectrophotometer (Agilent Technologies). The fold- change in siderophore secreted by the treated vs. untreated cells was calculated using equation S3, where Tr indicates treated cells, Un indicates DMSO control cells, […]
# solution of fresh modified M63 media. The experiment was carried out in at least five biological replicates for […]
# FFggFFFF cch aammggaa =(ΔΔAA 630 )UUii (S3)
# Measurement of Dissociation Constant (Kd) R ecombinant Pa BfrB was expressed in E. coli and purified as previously reported.19 Apo-BfrB (devoid of heme) was utilized for the measurements to prevent heme-driven fluorescence quenching. A 0.5 mL solution contai ning 0.01 µM apo Pa-BfrB in PBS (pH = 7.4) containing0.5% DMSO was plac ed into a 1 cm quartz cuvette wh ere it was titrated with aliq uots of compound dissolved in a 50% (v/v) PBS/DMSO solution. The fluorescence quenching brought by the addition of each aliquot was monitored with the aid of an Agilent Cary Fluorometer , with excitation at 280 nm, emission at 320- 470 nm, 10 x10 nm slit width, and an average of 5 scans per spectrum. Th e binding assay included at least 8 aliquots spanning from ~ 0.1 […]
# A control titration was carried out by titrati ng compound into PBS buffer. The Kd was cal culated by fitting the data to equation S4, w here Fb is the fraction bound and Fmax is the fraction bound at saturating compound concentration.
# FFbb = FFmmmmmm ? [ccccmmccccccmmcc ]? (S4) […]
row,SMILES,"siderophore secretion, ΔA 630 nm normalized to OD600"
1,O=C1NC(=O)c2c(NCc3ccc(Br)cc3O)cccc21 [EB-5-61],secrete significantly higher levels of siderophore
2,O=C1NC(=O)c2c(NCc3cccc(Br)c3O)cccc21 [EB-5-73],do not elicit a siderophore overproduction phenotype
3,"O=C1NC(=O)c2c(NCc3cc(Cl)ccc3O)cccc21 [KM-5-25, 4-((5-Chloro-2-hydroxybenzyl)amino)isoindoline-1,3-dione]",secrete significantly higher levels of siderophore
4,O=C1NC(=O)c2c(NCc3c(O)cccc3Cl)cccc21 [KM-5-29],secrete significantly higher levels of siderophore
5,"O=C1NC(=O)c2c(NCc3cc(Br)ccc3O)cccc21 [KM-5-35, 4-((5-Bromo-2-hydroxybenzyl)amino)isoindoline-1,3-dione]",secrete significantly higher levels of siderophore
6,O=C1NC(=O)c2c(NCc3cccc4c3CCN4)cccc21 [SB-17-140],do not elicit a siderophore overproduction phenotype

# System: P. aeruginosa PAO1
# Experiment: Compound intracellular accumulation in P. aeruginosa PAO1
# Type: cell-based
# Conditions: ‡ treatment with 15 µM compound
row,SMILES,"Intracell. Accum, P. aeruginosa PAO1"
1,O=C1NC(=O)c2c(NCc3cc(Cl)ccc3O)ccc(Br)c21 [SB-16-51],425 ± 79 nmol/1012 CFU
2,CC(C)(C)c1ccc(O)c(CNc2cccc3c2C(=O)NC3=O)c1 [SB-16-53],263 ± 40 nmol/1012 CFU
3,Cc1cc(Br)cc(CNc2cccc3c2C(=O)NC3=O)c1O [SB-16-106],415 ± 141 nmol/1012 CFU
4,O=C1NC(=O)c2c(NCc3cc(Br)c(F)cc3O)cccc21 [SB-16-112],457 ± 22 nmol/1012 CFU
5,O=C1NC(=O)c2c(NCc3cc(Br)ccc3O)ccc(Cl)c21 [SB-16-124],558 ± 154 nmol/1012 CFU
6,Cc1cc(Cl)cc(CNc2cccc3c2C(=O)NC3=O)c1O [SB-16-156],165 ± 18 nmol/1012 CFU
7,Cc1cc(CNc2cccc3c2C(=O)NC3=O)c(O)cc1Br [SB-16-183],379 ± 48 nmol/1012 CFU
